Measured values taken from patent publication US10781217B2, “Imidazopyridazine compound” (HANMI PHARMACEUTICAL CO., LTD., priority 2017, dated 2020).

Test system: SK-CO-1 cell line
Test: Cell growth inhibition on SK-CO-1 cell line (SRB assay)
Type: cell-based
Details: cultured with compound for 3 days, SRB colorimetric test
Experimental: SK-CO-1 cell line purchased from the American Type Culture Collection (ATCC, USA) was cultured at […] with an EMEM medium (10% FBS, 1% penicillin/streptomycin) under the presence of 5% CO2. The cultured SK-CO-1 cell line was prepared in 5×10^4/100 μl, placed in a 96 well-plate, and cultured for one day. After that, the test compound was stepwise diluted in a ratio of 1/10 from 10 μM to 0.1 nM in the same EMEM medium, and then cultured for 3 days. In order to measure viability of the cell, a sulforhodamine B colorimetric (SRB, sigma Cat. S1402) test method was used. After discarding the medium, 0.1 ml of 10% trichloroacetic acid (TCA, Sigma Cat. T0699) was introduced to each well, and the cell line was fixed for 30 minutes to 1 hour, then washed with distilled water, and exposed in the air to dry the plate. After that, 100 μl of 0.4% SRB solution was introduced to each well, and the cell line was stained for 30 minutes at room temperature, and the plate was washed with distilled water and 1% acetic acid, and then dried in the air. 150 μl of […] trizma base solution was introduced to each well, and after dissolving the solid SRB therein, absorbance was measured at 540 nm using a microplate-reader. The growth inhibition value (GI50) of the cell line was calculated using a GraphPad Prism software.

1-(2-(((1^5Z,5Z)-2^5-fluoro-3-aza-1(3,6)-imidazo[1,2-b]pyridazina-2(4,2)pyrimidina-4(1,3)-benzenacyclohexapan-5-en-4^5-yl)oxy)ethyl)piperidin-4-ol [Example 1]
GI50: 21 nM
